Data taken from PubChem BioAssay (NCI).
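Cells were grown in 96-well plates and exposed to each compound for 48 hours at five concentrations; endpoints were interpolated linearly between bracketing concentrations, or set to the highest concentration if not reached. Here, GI50 denotes the concentration required for 50% inhibition of growth. At the TGI there is no net growth.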

Experiments:
Assay in all cases: inhibition of tumour cell growth, NCI panel, 48 h
[1] = tested on: 786-0 renal
[2] = tested on: A498 renal
[3] = tested on: A549 NSCLC
[4] = tested on: ACHN renal
[5] = tested on: BT-549 breast
[6] = tested on: CAKI-1 renal
[7] = tested on: COLO 205 colon
[8] = tested on: DU-145 prostate
[9] = tested on: EKVX NSCLC
[10] = tested on: HCC-2998 colon
[11] = tested on: HCT-116 colon
[12] = tested on: HCT-15 colon
[13] = tested on: HL-60(TB) leukemia
[14] = tested on: HOP-62 NSCLC
[15] = tested on: HOP-92 NSCLC
[16] = tested on: HS 578T breast
[17] = tested on: HT29 colon
[18] = tested on: IGROV1 ovarian
[19] = tested on: K-562 leukemia
[20] = tested on: KM12 colon
[21] = tested on: LOX IMVI melanoma
[22] = tested on: M14 melanoma
[23] = tested on: MALME-3M melanoma
[24] = tested on: MCF7 breast
[25] = tested on: MDA-MB-231 breast
[26] = tested on: MDA-MB-435
[27] = tested on: MOLT-4 leukemia
[28] = tested on: NCI-H226 lung
[29] = tested on: NCI-H460 lung
[30] = tested on: NCI-H522 lung
[31] = tested on: NCI/ADR-RES ovarian
[32] = tested on: OVCAR-4 ovarian
[33] = tested on: OVCAR-5 ovarian
[34] = tested on: OVCAR-8 ovarian
[35] = tested on: PC-3 prostate
[36] = tested on: SF-268 CNS
[37] = tested on: SF-295 CNS
[38] = tested on: SF-539 CNS
[39] = tested on: SK-MEL-2 melanoma
[40] = tested on: SK-MEL-28 melanoma
[41] = tested on: SK-MEL-5 melanoma
[42] = tested on: SK-OV-3 ovarian
[43] = tested on: SN12C renal
[44] = tested on: SNB-19 CNS
[45] = tested on: SNB-75 CNS
[46] = tested on: SW-620 colon
[47] = tested on: T-47D breast
[48] = tested on: TK-10 renal
[49] = tested on: U251 CNS
[50] = tested on: UACC-257 melanoma
[51] = tested on: UACC-62 melanoma
[52] = tested on: UO-31 renal

Cc1ccc(C2CC(c3ccc(Nc4nc(NCCO)nc(Nc5ccc(Cl)cc5)n4)cc3)=Nc3c(N)nc(N)nc3N2)cc1 (centres undefined)
GI50 [1]: 1640 nM | TGI [1]: 3060 nM | GI50 [2]: 3850 nM | TGI [2]: 17700 nM | GI50 [3]: 1740 nM | TGI [3]: 3440 nM | GI50 [4]: 1720 nM | TGI [4]: 3090 nM | GI50 [5]: 1730 nM | TGI [5]: 3140 nM | GI50 [6]: 1640 nM | TGI [6]: 3060 nM | GI50 [7]: 1670 nM | TGI [7]: 3190 nM | GI50 [8]: 1760 nM | TGI [8]: 3190 nM | GI50 [9]: 1550 nM | TGI [9]: 2970 nM | GI50 [10]: 1550 nM | TGI [10]: 2930 nM | GI50 [11]: 1620 nM | TGI [11]: 2970 nM | GI50 [12]: 1480 nM | TGI [12]: 2950 nM | GI50 [13]: 1710 nM | TGI [13]: 4710 nM | GI50 [14]: 1680 nM | TGI [14]: 3200 nM | GI50 [15]: 1300 nM | TGI [15]: 2860 nM | GI50 [16]: 1790 nM | TGI [16]: 4360 nM | GI50 [17]: 1780 nM | TGI [17]: 3560 nM | GI50 [18]: 1650 nM | TGI [18]: 3140 nM | GI50 [19]: 1340 nM | TGI [19]: 3920 nM | GI50 [20]: 1970 nM | TGI [20]: 3860 nM | GI50 [21]: 1650 nM | TGI [21]: 3070 nM | GI50 [22]: 1840 nM | TGI [22]: 3320 nM | GI50 [23]: 1700 nM | TGI [23]: 3370 nM | GI50 [24]: 1460 nM | TGI [24]: 3010 nM | GI50 [25]: 1670 nM | TGI [25]: 3260 nM | GI50 [26]: 1730 nM | TGI [26]: 3130 nM | GI50 [27]: 1380 nM | TGI [27]: 3890 nM | GI50 [28]: 16700 nM | TGI [28]: 38400 nM | GI50 [29]: 1800 nM | TGI [29]: 3390 nM | GI50 [30]: 1720 nM | TGI [30]: 3470 nM | GI50 [31]: 1730 nM | TGI [31]: 3480 nM | GI50 [32]: 1850 nM | TGI [32]: 3630 nM | GI50 [33]: 1620 nM | TGI [33]: 3010 nM | GI50 [34]: 1800 nM | TGI [34]: 3690 nM | GI50 [35]: 1740 nM | TGI [35]: 3600 nM | GI50 [36]: 1810 nM | TGI [36]: 3640 nM | GI50 [37]: 1630 nM | TGI [37]: 3030 nM | GI50 [38]: 1570 nM | TGI [38]: 2970 nM | GI50 [39]: 1810 nM | TGI [39]: 3400 nM | GI50 [40]: 1770 nM | TGI [40]: 3160 nM | GI50 [41]: 1560 nM | TGI [41]: 2910 nM | GI50 [42]: 2690 nM | TGI [42]: 7330 nM | GI50 [43]: 1790 nM | TGI [43]: 3380 nM | GI50 [44]: 1570 nM | TGI [44]: 3000 nM | GI50 [45]: 1620 nM | TGI [45]: 3310 nM | GI50 [46]: 1790 nM | TGI [46]: 3310 nM | GI50 [47]: 1670 nM | TGI [47]: 3650 nM | GI50 [48]: 1900 nM | TGI [48]: 3380 nM | GI50 [49]: 1600 nM | TGI [49]: 3010 nM | GI50 [50]: 1840 nM | TGI [50]: 3460 nM | GI50 [51]: 1820 nM | TGI [51]: 3390 nM | GI50 [52]: 1640 nM | TGI [52]: 3000 nM
